This is an account of results in US20190152946A1, “Novel Compounds” (GlaxoSmithKline Intellectual Property Development Limited, priority 2016, published 2019).

What all share (type): cell-based
Experiment [1] deals with T1, TEC (Homo sapiens, UniProt P42680).
T1 construct: endogenous in cells; host or cells: THP-1
T1 sequence (P42680 1-631): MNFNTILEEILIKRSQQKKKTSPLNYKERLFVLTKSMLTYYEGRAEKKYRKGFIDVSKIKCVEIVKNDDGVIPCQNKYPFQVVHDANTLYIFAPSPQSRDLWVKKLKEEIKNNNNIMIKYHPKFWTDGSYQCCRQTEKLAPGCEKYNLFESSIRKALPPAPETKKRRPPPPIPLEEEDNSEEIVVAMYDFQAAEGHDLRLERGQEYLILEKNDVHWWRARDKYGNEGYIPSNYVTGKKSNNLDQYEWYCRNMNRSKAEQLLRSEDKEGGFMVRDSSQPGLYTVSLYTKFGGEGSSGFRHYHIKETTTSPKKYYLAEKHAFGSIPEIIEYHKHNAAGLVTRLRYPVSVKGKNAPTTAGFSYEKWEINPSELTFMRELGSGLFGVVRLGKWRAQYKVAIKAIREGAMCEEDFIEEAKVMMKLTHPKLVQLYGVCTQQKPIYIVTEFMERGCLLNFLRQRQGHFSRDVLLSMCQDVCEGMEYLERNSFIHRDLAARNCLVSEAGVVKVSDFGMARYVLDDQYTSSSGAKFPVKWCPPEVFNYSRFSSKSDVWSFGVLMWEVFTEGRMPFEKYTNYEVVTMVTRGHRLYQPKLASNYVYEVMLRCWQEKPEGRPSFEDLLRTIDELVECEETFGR
In words: Expression proteomics in THP-1 cells, TEC level. Conditions: TEC protein log2 fold change, 24 h, 1.0 μM. The protocol: (§1) THP-1 cells were seeded at a concentration of 3×10^6 cells in T175 flasks with 60 mL growth medium (RPM11640+10% FBS). […] of a 10× compound solution prepared in growth medium (DMSO), IAP PROTAC) was added and the cells were treated for the indicated time points (6 or 24 h) at 37° C., 5% CO2. For harvesting the cells were collected into falcon tubes on ice, centrifuged and washed twice in cold PBS (Life technologies). After the last washing step the supernatant was removed and the pellets were snap-frozen in liquid N2 and stored at −80° C. and lysed in 2% SDS for 3 min at 95° C. in a thermomixer (Thermo Fisher Scientific), followed by digestion of DNA with Benzonase at 37° C. for 1.5 h. Lysate was cleared by centrifugation an protein concentration in supernatant was determined by BCA assay.
(§2) Leukemia 25, 89-100 (2011).
(§3) Samples were dried in vacuo and resuspended in 0.05% trifluoroacetic acid in water. […]
(§4) Reporter ion intensities were read from raw data and multiplied with ion accumulation times (the unit is milliseconds) so as to yield a measure proportional to the number of ions;
(§5) Nat Biotech 29, 255-265 (2011). this measure is referred to as ion area Savitski, M. M. et al. Delayed Fragmentation and Optimized Isolation Width Settings for Improvement of Protein Identification and Accuracy of Isobaric Mass Tag Quantification on Orbitrap-Type Mass Spectrometers. […]

In experiment [2] the target is T2, AURKA (Homo sapiens, UniProt O14965).
T2 construct: endogenous in cells; host or cells: THP-1
T2 sequence (O14965 1-403): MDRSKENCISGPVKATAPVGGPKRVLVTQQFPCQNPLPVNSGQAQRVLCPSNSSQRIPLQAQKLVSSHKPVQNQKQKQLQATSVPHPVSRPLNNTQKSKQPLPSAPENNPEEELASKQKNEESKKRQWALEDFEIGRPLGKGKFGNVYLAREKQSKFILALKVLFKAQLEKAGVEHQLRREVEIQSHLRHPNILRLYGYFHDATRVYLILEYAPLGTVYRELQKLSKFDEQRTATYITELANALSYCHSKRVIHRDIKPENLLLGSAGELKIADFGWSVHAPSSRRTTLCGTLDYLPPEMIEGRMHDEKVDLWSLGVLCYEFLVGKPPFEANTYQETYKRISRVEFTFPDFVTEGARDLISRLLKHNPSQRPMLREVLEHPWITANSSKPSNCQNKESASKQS
In words: Expression proteomics in THP-1 cells, AURKA level. Conditions: AURKA protein log2 fold change, 24 h, 1.0 μM. Here is the method:
as §1, §2, §3, §4, §5

Experiment [3] addresses T3, AKT2 (Homo sapiens, UniProt P31751).
T3 construct: endogenous in cells; host or cells: THP-1
Kind of experiment: Expression proteomics in THP-1 cells, AKT2 level. Conditions: AKT2 protein log2 fold change, 24 h, 1.0 μM. Here is the method:
as §1, §2, §3, §4, §5

For experiment [4], the target named is T4, PTK2B (Homo sapiens, UniProt Q14289).
T4 construct: endogenous in cells; host or cells: THP-1
T4 sequence (Q14289 whole entry): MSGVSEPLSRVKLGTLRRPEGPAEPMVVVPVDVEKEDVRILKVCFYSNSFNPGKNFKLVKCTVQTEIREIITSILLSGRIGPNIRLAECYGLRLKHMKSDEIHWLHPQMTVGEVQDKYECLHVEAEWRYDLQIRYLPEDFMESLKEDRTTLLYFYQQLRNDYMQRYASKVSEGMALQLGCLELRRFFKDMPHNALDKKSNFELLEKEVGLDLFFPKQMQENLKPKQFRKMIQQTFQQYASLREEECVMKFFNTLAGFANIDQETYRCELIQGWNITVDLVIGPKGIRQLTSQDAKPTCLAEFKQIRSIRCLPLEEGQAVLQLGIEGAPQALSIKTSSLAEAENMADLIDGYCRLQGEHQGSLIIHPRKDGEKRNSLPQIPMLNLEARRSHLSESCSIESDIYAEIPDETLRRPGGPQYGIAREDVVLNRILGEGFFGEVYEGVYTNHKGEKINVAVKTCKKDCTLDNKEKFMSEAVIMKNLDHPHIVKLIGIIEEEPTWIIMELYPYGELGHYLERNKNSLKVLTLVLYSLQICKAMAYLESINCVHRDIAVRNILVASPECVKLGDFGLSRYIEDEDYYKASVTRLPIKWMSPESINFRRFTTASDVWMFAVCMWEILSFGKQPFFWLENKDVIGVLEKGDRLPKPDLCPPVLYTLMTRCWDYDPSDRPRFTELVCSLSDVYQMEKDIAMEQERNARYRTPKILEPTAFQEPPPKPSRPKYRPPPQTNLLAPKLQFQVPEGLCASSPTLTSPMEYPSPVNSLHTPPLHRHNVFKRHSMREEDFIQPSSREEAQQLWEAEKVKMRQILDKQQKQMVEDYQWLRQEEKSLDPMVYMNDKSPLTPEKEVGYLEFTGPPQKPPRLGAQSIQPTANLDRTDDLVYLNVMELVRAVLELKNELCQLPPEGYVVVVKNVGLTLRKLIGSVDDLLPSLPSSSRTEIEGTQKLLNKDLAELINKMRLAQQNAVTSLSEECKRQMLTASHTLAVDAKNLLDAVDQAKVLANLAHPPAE
In words: Expression proteomics in THP-1 cells, PTK2B level. The settings on record: PTK2B protein log2 fold change, 24 h, 1.0 μM. Here is the method:
as §1, §2, §3, §4, §5

T3 sequence (P31751 whole entry): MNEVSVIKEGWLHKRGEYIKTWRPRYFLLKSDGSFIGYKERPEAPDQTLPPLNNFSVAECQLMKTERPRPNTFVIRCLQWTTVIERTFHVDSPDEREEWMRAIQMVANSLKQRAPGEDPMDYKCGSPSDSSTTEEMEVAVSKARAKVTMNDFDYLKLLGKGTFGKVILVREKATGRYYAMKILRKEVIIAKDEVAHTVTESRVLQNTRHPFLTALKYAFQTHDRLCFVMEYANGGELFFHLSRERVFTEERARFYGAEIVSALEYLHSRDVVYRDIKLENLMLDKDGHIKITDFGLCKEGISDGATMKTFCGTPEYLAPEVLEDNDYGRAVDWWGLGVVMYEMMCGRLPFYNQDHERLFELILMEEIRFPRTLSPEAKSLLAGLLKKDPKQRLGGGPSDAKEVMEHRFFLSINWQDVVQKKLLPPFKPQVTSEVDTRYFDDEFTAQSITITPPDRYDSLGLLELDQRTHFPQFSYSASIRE

As for `CNC(=O)c1ccccc1Nc1nc(Nc2ccc(N3CCN(CCOCCOCCOCCOc4ccc5c(c4)CN(C(=O)[C@@H](NC(=O)[C@H](C)NC)C(C)(C)C)[C@H](C(=O)N[C@@H]4CCCc6ccccc64)C5)CC3)cc2)ncc1Cl` [IAP, (S)-7-(2-(2-(2-(2-(4-(4-((5-Chloro-4-((2-(methylcarbamoyl)phenyl)amino)pyrimidin-2-yl)amino)phenyl)piperazin-1-yl)ethoxy)ethoxy)ethoxy)ethoxy)-2-((S)-3,3-dimethyl-2-((S)-2-(methylamino)propanamido)butanoyl)-N-((R)-1,2,3,4-tetrahydronaphthalen-1-yl)-1,2,3,4-tetrahydroisoquinoline-3-carboxamide], the “log2fc_IAP_24 h_1.0 μM_n1” value is −1.79 in experiment [1] (replicate n1), −1.81 in experiment [2] (replicate n1), −1.01 in experiment [3] (replicate n1) and −1.78 in experiment [4] (replicate n1). For the same compound, the “log2fc_IAP_24 h_1.0 μM_n2” value in experiment [1] (replicate n2) is reported as −2.04; in experiment [2] (replicate n2), −1.42; in experiment [3] (replicate n2) it was −0.89; in experiment [4] (replicate n2), −2.06.
